Data as given in patent US20110319415A1, “Susceptibility to HSP90-Inhibitors” (Universit+e,uml a+ee t zu K+e,uml o+ee ln, priority 2008, published 2011).
Where “and” joins values, the source holds several entries; their conditions need not be identical. Identical values can stand only once. Entries after “also recorded” stand apart in the source; their conditions may differ.

Assays:
NSCLC cell lines = assay: High-throughput cell-based screening of the NSCLC cell line collection (CellTiter-Glo viability); conditions: for sensitivity pattern (cytotoxic activity) across the NSCLC cell line collection: cellular viability after 96 h, cellular ATP content, entire NSCLC cell line panel
[1] = system: KRAS-driven lung adenocarcinomas
Experimental: FIG. 20. […] Note that the images were taken from the earlier publications for illustration purposes only.
Transgenic mice (as described in FIG. 20) with KRAS-mutant lung tumors were treated with the HSP90 inhibitor 17-DMAG for seven days. Tumor volumes were determined by magnetic resonance imaging and shown as transthoracic images (left panels), quantified and changes in tumor volume relative to the pre-therapy images are given in percent.
These mice carry a Lox-Stop-Lox-KRAS_G12D gene. […] Mice received 20 mg/kg/d of 17-DMAG, a geldanamycin HSP90 inhibitor with almost identical structure as 17-AAG.

[2] = system: Ba/F3 cells expressing erlotinib-sensitizing mutations of EGFR together with T790M; assay: Growth inhibition / cytotoxicity in Ba/F3 cells expressing mutant EGFR with T790M; format: cell-based, Murine; conditions: Ba/F3 with sensitizing EGFR mutation plus T790M, 96 h, cellular ATP content
Experimental: Compounds were then added in serial dilutions.
EGFR_cDNA was subcloned into pBabe-hygro vectors.

[3] = system: mutant EGFR bound to Hsp90; assay: Depletion of mutant EGFR from the Hsp90 complex; format: cell-based; conditions: same conditions as for KRAS
c-RAF = assay: Immunoblot of lysates of cell lines treated with 17-AAG: c-RAF; format: cell-based, human; conditions: sensitive (KRAS-mutant) cell lines
Source text: (§1) (A) Distribution of KRAS mutations (black columns) across the 17-AAG-sensitivity profile (IC50 values) in the NSCLC cell line collection and the NCI-60 cell line panel. Incidence of KRAS mutation and sensitivity towards 17-AAG is represented by a Fisher's exact test for both datasets. (B) Lysates of a KRAS wildtype (wt) and a KRAS mutated (G12C) cell line treated with 17AAG at different concentrations were immunoblotted for c-RAF, KRAS, cyclinD1 and Akt. (C) Distribution of copy number gain at 1q21.3 (black columns) across the UO126-sensitivity profile (IC50 values) in the NSCLC cell line collection and the hypothemycin-sensitivity profile in the NCI-60 cell line panel. Incidence of amplification of 1q21.3 mutation and sensitivity towards 17-AAG is represented by a Fisher's exact test for both datasets. […]
(§2) Whole-cell lysates were prepared in NP40 lysis buffer (50 mmol/L Tris-HCl (pH 7.4). 150 mmol/L NaCl, 1% NP40) supplemented with protease and phosphatase inhibitor I and II cocktails (www.merckbiosciences.co.uk/g.asp?f=CBC/home.html) and clarified by centrifugation. Protein concentrations were determined using the Bicinchoninic Acid Protein Assay kit (www.piercenet.com) and equivalent amounts (40-60 μg) were subjected to SDS-PAGE on 12% gels, except where indicated. […]

Akt = assay: Immunoblot of lysates of cell lines treated with 17-AAG: Akt; format: cell-based, human; conditions: sensitive (KRAS-mutant) cell lines
Source text: as §1, §2

[4] = system: mutant KRAS bound to Hsp90; assay: Depletion of mutant KRAS from the Hsp90 complex; format: cell-based; conditions: treatment with HSP90 inhibitor
KRAS = assay: Immunoblot of lysates of cell lines treated with 17-AAG: KRAS; format: cell-based, human; conditions: sensitive (KRAS-mutant) cell lines
Source text: as §1, §2

With `N#CC(=C(/N)Sc1ccccc1N)/C(C#N)=C(\N)Sc1ccccc1N` [U0126] the “sensitivity pattern (cytotoxic activity) across the NSCLC cell line collection” value (“sensitivity pattern” below) (NSCLC cell lines) was “enhanced activity in a subset of the lung cancer cell line collection”.
With `CO[C@H]1/C=C\C=C(/C)C(=O)NC2=CC(=O)C(NCCN(C)C)=C(C[C@@H](C)C[C@H](OC)[C@H](O)[C@@H](C)/C=C(\C)[C@@H]1OC(N)=O)C2=O` [17-DMAG, 17-NN-Dimethyl Ethylene Diamine-Geldanamycin] the “tumor burden of the third mouse” value ([1]; 20 mg/kg/d, one week of treatment, MRI imaging) was “slight but insignificant reduction of tumor burden”, the “mice showing tumor regression” value ([1]; 20 mg/kg/d, one week of treatment, MRI imaging, lox-stop-lox KRAS_G12D mice) was 2 of 3 and 3 of 4 and the duration of responses ([1]; lung tumor-bearing lox-stop-lox KRAS_G12D mice, one-week treatment) was “transient”. The “biological effects in the cell lines compared with 17-AAG” value (NSCLC cell lines; in vitro, data not shown) was “identical”.
`Cc1cc(Nc2cc(N3CCN(C)CC3)nc(Sc3ccc(NC(=O)C4CC4)cc3)n2)n[nH]1` [VX-680] was tested, and the “sensitivity pattern” value (NSCLC cell lines) was “pronounced cytotoxic activity in a small subset of cell lines”.
`COc1cc2c(Nc3ccc(Br)cc3F)ncnc2cc1OCC1CCN(C)CC1` [vandetanib] was tested, and the “activity / cytotoxicity in Ba/F3 cells expressing the T790M resistance allele” value [2] was “completely resistant”, the “activity / cytotoxicity in Ba/F3 cells expressing the T790M resistance allele” value ([2]; listed as Vandatinib) was “lack of activity” and the “sensitivity pattern” value (NSCLC cell lines) was “pronounced cytotoxic activity in a small subset of cell lines”.
`C#Cc1cccc(Nc2ncnc3cc(OCCOC)c(OCCOC)cc23)c1` [erlotinib] was tested, and the “sensitivity pattern” value (NSCLC cell lines) was “pronounced cytotoxic activity in a small subset of cell lines”.
In the case of `C=CCNC1=C2C[C@@H](C)C[C@H](OC)[C@H](O)[C@@H](C)/C=C(\C)[C@H](OC(N)=O)[C@@H](OC)/C=C\C=C(/C)C(=O)NC(=CC1=O)C2=O` [17-AAG, [(3S,5S,6R,7S,8E,10R,11S,12E,14E)-21-(allylamino)-6-hydroxy-5,11-dimethoxy-3,7,9,15-tetramethyl-16,20,22-trioxo-17-azabicyclo[16.3.1]docosa-8,12,14,18,21-pentaen-10-yl]carbamate], the “depletion of mutant EGFR from the Hsp90 complex” value [3] is reported as “depleted from the complex”, the “c-RAF protein levels after treatment” value (c-RAF) is reported as “modulated; also recorded: reduced protein levels” and the “Akt protein levels after treatment” value (Akt) is reported as “modulated; also recorded: reduced protein levels”. The “depletion of mutant KRAS from the Hsp90 complex” value [4] was “not depleted from the complex”, the “KRAS protein levels after treatment” value (KRAS) was “not modulated” and the “sensitivity pattern” value (NSCLC cell lines) was “active in most of the cell lines with only a minority being resistant”.
